Reference: patent US8586533B2, “Treatment of early-stage osteoarthritis” (Kaohsiung Medical University, priority 2008, dated 2013)

Experiments:
rat articular cartilage = experiment: Papain-induced OA rat model, type II and type X collagen immunohistochemistry; format: in vivo, Sprague-Dawley rats; conditions: OA plus PTH group, 10 nM intraarticular
Experimental: Fifty-four 12-week-old male Sprague-Dawley rats (250-300 gm) were purchased from BioLASCO Taiwan and housed under standard laboratory conditions (temperature 24° C., 12-hour light-dark cycle) with food and water ad libitum. The animals were acclimatized to the laboratory environment for 1 week before the experiments.
Rats were divided into the following 3 groups: OA (OA induction without PTH [1-34] treatment) (n=18), OA plus PTH (PTH [1-34] treatment followed by OA induction) (n=18), and PTH (PTH [1-34] treatment without OA induction) (n=18). Each left knee, which served as the contralateral control joint, was injected with vehicle without PTH treatment or OA induction. The right knees were the study joints. OA was induced in the right knees of rats in the OA and OA plus PTH groups with intraarticular injections of 20 μl of 4% papain solution and 20 μl of 0.03M cysteine. The injections were given with a 26-gauge needle via the patellar tendon on days 1, 4, and 7 of the experiment (see e.g., Nucl Med Commun (1996) 17(6): 529-35). In the OA plus PTH group, after OA induction, the right knees were injected intraarticularly with 40 μl of 10 nM PTH (1-34) every 3 days until rats were killed. In the PTH group, the same PTH (1-34) treatment was performed but without OA induction. Six rats from each group were killed by CO2 inhalation at the same time points as rats in the OA plus PTH group, in which PTH (1-34) treatment was given for 1, 3, and 5 weeks.
After rats were killed, the knees were harvested, and the tibia plateaus with articular cartilage were collected and fixed with 10% neutral buffered formalin prior to histologic preparation. The samples were then decalcified in 10% formic acid/PBS. The decalcified tibia articular samples were paraffin embedded, and 5-μm microsections in the coronary plane were prepared. GAG was stained with Safranin O-fast green (1% Safranin O counterstained with 0.75% hematoxylin and then 1% fast green) (Sigma, St. Louis Mo.). Localized type II collagen and type X collagen were immunostained. Apoptotic cells in cartilage were TUNEL stained.
The tibia articular sections were rehydrated, and the endogenous peroxidase in tissue was blocked with 3% hydrogen peroxide. Samples were digested by enzymes for epitope retrieval before incubation with primary antibodies (see e.g. J Histochem Cytochem (2002) 50(8): 1049-58). The optimal condition for enzyme digestion for type II collagen immunostaining was a mixture of 2.5% hyaluronidase and 1 mg/ml of Pronase in PBS (pH 7.4; Sigma) at 37° C. for 1 hour. […] The relative density of immunostaining (density/area; mean±SEM area 25.44±2.77 mm^2) was measured using Image-Pro Plus software, version 5.0 (Media Cybernetics).

[1] = tested on: human articular chondrocytes; experiment: TUNEL staining, rate of apoptosis in chondrocyte cultures; format: cell-based; conditions: azaC plus PTH cultures, 10 nM, 14 days of treatment, P<0.01
Experimental: Chondrocyte cultures were divided into 4 groups.
We measured apoptotic cells using the TUNEL (terminal deoxy-nucleotidyl transferase mediated dUTP nick end labeling) staining method using the In Situ Cell Death Detection Kit, TMR red (Roche, Mannheim, Germany). Following the manufacturer's guidelines, cells were fixed with 4% paraformaldehyde in phosphate buffered saline (PBS) at a cell density of 1×10^6/ml and incubated at room temperature for 10 minutes, and then settled on a slide by centrifugation at a speed of 2,000 rpm for 5 minutes using a cytospin (Cytospin 3; Shandon, Cheshire, UK). Slides were rinsed twice with PBS, and the cells were permeabilized by incubating in permeabilization solution (0.1% Triton X-100 in 0.1% sodium citrate) for 2 minutes on ice. The TUNEL reaction mixture containing terminal deoxynucleotidyl transferase and rhodamine (the labeling dye) was added to the slides and incubated at 37° C. in a humidified chamber in the dark for 60 minutes. The reaction was stopped by a blocking buffer (0.1% Triton X-100/0.5% bovine serum albumin in PBS). Cells were counterstained by 4′,6-diamidino-2-phenylindole (DAPI). The slides were observed under a fluorescence microscope with an excitation wavelength of 580 nm for rhodamine and 365 nm for DAPI. Cell nuclei were stained blue by DAPI, and only apoptotic cells were stained red by rhodamine. Stained cells were counted in 5 microscopic fields (1.566 mm^2/field) on each slide. Data were analyzed using Image-Pro Plus analysis software (Media Cybernetics, Silver Spring, Md.). The rate of apoptosis in chondrocytes was defined as the ratio of red-stained cells (apoptotic cells) to blue-stained cells (total cells).
By using TUNEL staining, the rate of apoptosis in human articular chondrocyte cultures in the control, azaC, and azaC plus PTH groups were compared after 14 days of PTH(1-34) treatment (for the azaC plus PTH group).

PTH (1-34): 34-amino acid long peptide made up of amino-terminal amino acids 1 through 34 of human parathyroid hormone
Immunolocalized type X collagen in cartilage compared with OA group (rat articular cartilage; 3 and 5 weeks): less evident | density of immunolocalized type II collagen versus contralateral control cartilage (rat articular cartilage; 3 weeks): not different | density of immunolocalized type II collagen versus OA group (rat articular cartilage; 3 weeks, P<0.05): significantly higher | density of immunolocalized type II collagen versus OA group (P<0.01) and contralateral control (P<0.05) (rat articular cartilage; 5 weeks): significantly higher | rate of apoptosis versus azaC cultures [1]: significantly lower | rate of apoptosis versus control cultures [1]: 3.1 fold increase
